In US12168646B2, “Aryl hydrocarbon receptor agonists and uses thereof” (NEXYS THERAPEUTICS, INC., priority 2022, dated 2024):
pEC50: −log10 of the molar value.

Columns and labels:
[1] = Stability in human feces (azo reduction in feces homogenate); assay type: in vitro ADME; details: pH 6.8, 37° C., under nitrogen
Description: Biological Data 2: Stability in Human Feces
Accordingly, selected azo compounds of the invention were exposed to human feces under conditions suitable to promote azo reduction.
The human feces from two donors were homogenized in isotonic phosphate buffered saline (pH 6.8) with a ratio of 1:10 (w/v). The tubes were sealed using sealing film. Test article was dissolved in isotonic phosphate buffer (pH 6.8) to form a working solution of 20 μM (if the solubility allows). An aliquot of working solution (50 μL) was added to the human feces homogenate (50 μL) for each time point (0, 1, 2, 4, 6 and 24 h) in duplicate and placed under nitrogen for about 1 minute in order to exhaust air, and then incubated at 37° C. After incubation at each pre-set time point, 1000 μL acetonitrile containing internal standard w as added to each tube to quench reaction. Samples were vortexed and centrifuged at 3700 rpm for 10 min and the supernatant was transferred for analysis (and diluted where necessary). The concentrations of test article and its metabolite (example 3) in the supernatants were determined using LC-MS/MS method. Sulfasalazine was used as a positive control. All incubations were performed in duplicate.

AhR = target: T1, AhR (Homo sapiens, UniProt P35869); test: HT29 AhR Reporter Assay (HT29-Lucia AhR cells, QUANTI-Luc luminescence); assay type: cell-based; details: HT29-Lucia AhR cells
T1 construct: HT29-Lucia AhR cells were purchased from Invivogen (cat #ht21-ahr); host or cells: HT29-Lucia AhR cells
T1 sequence (P35869 11-848): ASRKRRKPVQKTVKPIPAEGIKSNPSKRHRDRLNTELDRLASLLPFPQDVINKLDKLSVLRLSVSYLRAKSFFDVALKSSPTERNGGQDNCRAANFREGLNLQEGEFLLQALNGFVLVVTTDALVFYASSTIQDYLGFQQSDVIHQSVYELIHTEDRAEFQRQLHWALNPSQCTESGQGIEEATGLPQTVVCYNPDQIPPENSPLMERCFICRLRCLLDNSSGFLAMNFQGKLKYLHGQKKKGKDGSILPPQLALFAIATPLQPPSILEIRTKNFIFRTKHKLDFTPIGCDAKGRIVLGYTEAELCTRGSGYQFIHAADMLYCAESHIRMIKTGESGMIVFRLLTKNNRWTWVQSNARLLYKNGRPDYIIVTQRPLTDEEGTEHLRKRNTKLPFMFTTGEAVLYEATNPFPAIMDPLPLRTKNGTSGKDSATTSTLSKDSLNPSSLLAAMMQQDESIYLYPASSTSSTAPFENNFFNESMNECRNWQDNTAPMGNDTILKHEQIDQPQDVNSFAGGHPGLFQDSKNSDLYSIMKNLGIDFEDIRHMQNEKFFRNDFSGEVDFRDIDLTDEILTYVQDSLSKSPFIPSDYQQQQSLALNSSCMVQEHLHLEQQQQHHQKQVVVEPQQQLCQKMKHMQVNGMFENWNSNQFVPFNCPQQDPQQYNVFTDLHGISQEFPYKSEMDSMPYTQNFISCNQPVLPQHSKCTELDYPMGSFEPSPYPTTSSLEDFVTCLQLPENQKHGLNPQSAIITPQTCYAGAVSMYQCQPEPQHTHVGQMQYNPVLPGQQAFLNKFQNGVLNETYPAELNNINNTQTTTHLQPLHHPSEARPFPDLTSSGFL
Description: Biological Data 1: HT29 AhR Reporter Assay HT29-Lucia AhR cells were purchased from Invivogen (cat #ht21-ahr). […] The cell suspension was removed from growth medium and rinsed gently with pre-warmed PBS (10 mL). Pre-warmed Trypsin (1 mL) was added, and cells were held at 30° C. for about 5 min and then detached by pipette. The dissociated cell clumps were gently pipetted up and down. The cells were resuspended in pre-warmed detection medium (DMEM, 10% FBS (30 min at 56° C.), 100 U/ml penicillin, 100 μg/ml streptomycin, and test article or vehicle) and counted. A cell suspension of ˜500,000 cells/mL in Detection medium was prepared. […] Samples (20 μL/well) were pipetted into a 96-well white (opaque), and QUANTI-Luc™ (50 μL/well) was added. The plate was gently tapped and then read in a luminometer (0.1 s reading time).

O=C(O)c1cc(/C=C/c2ccccc2-c2ccnc(Nc3ccc(C(F)(F)F)cc3)n2)ccc1O [Example 59, (E)-2-hydroxy-5-(2-(2-((4-(trifluoromethyl)phenyl)amino)pyrimidin-4-yl)styryl)benzoic acid, reference compound]
% of parent remaining after incubation for 6 h [1]: 94% | pEC50 (AhR; 18-24 h, EC50 = concentration to reach half of maximum efficacy of reference compound VAF347): 5.85 | Emax (AhR; % efficacy = 100%*(TA-BG)/(Ref-BG), Ref = VAF347, read-out: HT29 AhR % efficacy): 74%

O=C(O)c1cc(/N=N/c2ccccc2-c2ccnc(Nc3ccc(C(F)(F)F)cc3)n2)cc(C(=O)O)c1O [Example 37, (E)-2-Hydroxy-5-((2-(2-((4-(trifluoromethyl)phenyl)amino)pyrimidin-4-yl)phenyl)diazenyl)isophthalic acid]
% of parent remaining after incubation for 6 h [1]: 69%

N[C@H](Cc1cc(/N=N/c2ccccc2-c2ccnc(Nc3ccc(C(F)(F)F)cc3)n2)ccc1O)C(=O)O [Example 49, (R,E)-2-amino-3-(2-hydroxy-5-((2-(2-((4-(trifluoromethyl)phenyl)amino)pyrimidin-4-yl)phenyl)diazenyl)phenyl)propanoic acid]
% of parent remaining after incubation for 6 h [1]: 33%

O=C(O)c1cccc(/N=N/c2ccccc2-c2ccnc(Nc3ccc(C(F)(F)F)cc3)n2)c1 [Example 34, (E)-3-((2-(2-((4-(trifluoromethyl)phenyl)amino)pyrimidin-4-yl)phenyl)diazenyl)benzoic acid]
% of parent remaining after incubation for 6 h [1]: 95%

COc1ccc(/N=N/c2ccccc2-c2ccnc(Nc3ccc(C(F)(F)F)cc3)n2)cc1C(=O)O [Example 43, (E)-2-methoxy-5-((2-(2-((4-(trifluoromethyl)phenyl)amino)pyrimidin-4-yl)phenyl)diazenyl)benzoic acid]
% of parent remaining after incubation for 6 h [1]: 74%

O=C(O)c1cc(O)cc(/N=N/c2ccccc2-c2ccnc(Nc3ccc(C(F)(F)F)cc3)n2)c1 [Example 55, (E)-3-hydroxy-5-((2-(2-((4-(trifluoromethyl)phenyl)amino)pyrimidin-4-yl)phenyl)diazenyl)benzoic acid]
% of parent remaining after incubation for 6 h [1]: 76%

Oc1ccc(/N=N/c2ccccc2-c2ccnc(Nc3ccc(C(F)(F)F)cc3)n2)cc1 [Example 33, (E)-4-((2-(2-((4-(trifluoromethyl)phenyl)amino)pyrimidin-4-yl)phenyl)diazenyl)phenol]
% of parent remaining after incubation for 6 h [1]: 59%
